Data published in ChEMBL document CHEMBL6109168, “Novel Compounds as 5-HT2A Receptor Modulators for Treating Psychiatric and Neurological Disorders” (ACS Med Chem Lett, 2025).

Target: 5-hydroxytryptamine receptor 2A (Homo sapiens, UniProt P28223)
Assay: Agonist activity at human 5HT2A receptor expressed in HEK293 cells assessed as IP1 accumulation by HTRF assay
Type: functional, cell-based

Chain of 5-hydroxytryptamine receptor 2A (P28223 whole entry): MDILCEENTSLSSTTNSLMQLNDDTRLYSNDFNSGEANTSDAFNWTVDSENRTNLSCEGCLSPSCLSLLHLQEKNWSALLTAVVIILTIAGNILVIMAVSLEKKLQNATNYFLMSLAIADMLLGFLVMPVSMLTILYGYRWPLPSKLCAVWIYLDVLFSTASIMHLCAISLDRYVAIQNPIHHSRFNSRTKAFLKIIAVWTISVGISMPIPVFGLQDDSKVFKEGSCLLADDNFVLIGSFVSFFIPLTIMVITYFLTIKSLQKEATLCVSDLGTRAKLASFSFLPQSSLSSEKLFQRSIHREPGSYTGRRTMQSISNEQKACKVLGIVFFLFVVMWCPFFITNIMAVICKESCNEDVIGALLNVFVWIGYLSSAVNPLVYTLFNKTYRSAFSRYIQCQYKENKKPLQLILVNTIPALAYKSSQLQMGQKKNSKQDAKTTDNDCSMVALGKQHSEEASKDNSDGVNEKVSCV

Row | SMILES | EC50 [nM]
1 | Oc1cccc2[nH]cc(C3=CCCNC3)c12 | < 100
2 | COc1cc(Cl)c2[nH]cc(C3=CCCNC3)c2c1 | < 100
3 | N#Cc1cc(F)cc2c(C3=CCCNC3)c[nH]c12 | < 100
4 | Fc1ccc2c(C3=CCCNC3)n[nH]c2c1F | < 100
5 | N#Cc1c(F)ccc2c(C3=CCCNC3)c[nH]c12 | < 100
6 | C1=C(c2csc3ccccc23)CNCC1 | < 100
